Test [1] has as its target T1, Cerezyme (human glucosylceramidase) (Homo sapiens, UniProt P04062, R534H).
T1 construct: purchased Genzyme Corporation, Cambridge, MA, USA
T1 sequence (P04062 40-536 R534H): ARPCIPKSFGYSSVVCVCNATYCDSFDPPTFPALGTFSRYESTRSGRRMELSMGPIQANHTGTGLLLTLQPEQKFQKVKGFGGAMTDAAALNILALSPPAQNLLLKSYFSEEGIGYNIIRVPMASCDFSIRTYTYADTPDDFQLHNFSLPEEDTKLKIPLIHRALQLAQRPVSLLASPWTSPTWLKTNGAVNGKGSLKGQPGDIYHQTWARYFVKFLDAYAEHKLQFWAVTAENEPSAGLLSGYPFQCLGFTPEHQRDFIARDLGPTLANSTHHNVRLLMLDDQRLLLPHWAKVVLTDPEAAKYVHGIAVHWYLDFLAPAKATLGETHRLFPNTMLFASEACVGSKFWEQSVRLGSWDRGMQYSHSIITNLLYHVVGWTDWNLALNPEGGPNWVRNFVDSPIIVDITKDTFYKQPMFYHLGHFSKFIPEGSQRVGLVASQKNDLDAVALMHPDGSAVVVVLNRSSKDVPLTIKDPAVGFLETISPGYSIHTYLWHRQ
Put plainly: Effect on Cerezyme activity with res-glp substrate. It counts as biochemical. To be noted: substrate resorufin 3β-D-glucopyranoside (100 µM). The procedure: Resorufin-3β-D-glucopyranoside (res-glp, Sigma-Aldrich) enzyme kinetic assays were performed according to methods described by Urban et al.[16] with modifications. Reaction buffer contained 50 mM citric acid, 176 mM K2HPO4, pH 6, 0.01% Tween-20, and 10 mM sodium taurocholate. The reactions were carried out in black 96-well plates using 20 ng of enzyme with 100 μM res-glp substrate. In all, 10 μL/well of res-glp substrate was added to each well and the reaction was initiated by adding 20 μL enzyme (20 ng). After incubation at 37 °C for 30–40 min, the fluorescence was read at an excitation of 570 (±10) nm and an emission of 610 (±10) nm on a VersaMax™ Microplate Reader from Molecular Devices. A standard curve was prepared with serial dilutions of the free fluorophore, resorufin, in the same volume of assay buffer. All reactions were linear with respect to time and protein concentration and the pH, temperature, and dimethyl sulfoxide (DMSO) optimal tolerance was verified.
The Z′-factor was used for the assessment of the efficiency of the HTS assay for each individual plate. Values greater than 0.5 has been considered as an indicator of an excellent screening assay quality. […] The top three hits identified were re-tested in serial dilution against Sgl1 and cerezyme.

For another test, the target named is T2, Cerezyme (Homo sapiens, UniProt P04062, R534H).
T2 construct: purchased Genzyme Corporation, Cambridge, MA, USA
T2 sequence (P04062 40-536 R534H): T1 sequence (P04062 40-536 R534H)
The experiment in a line: Cerezyme activity on mammalian C18-glucosylceramide in presence of hits (LC-MS). As to conditions: for C18-ceramide: hits at 100 µM, 10 µg Cerezyme, 10 µg mammalian C18-glucosylceramide, pH 5.5, 37°C, 3 hours; for inhibition of human Cerezyme: physiological mammalian glucosylceramide substrate, 100 µM compound. It counts as biochemical. The procedure: Supplementary figure 8. Cerezyme is not inhibited by its 1, 9 and 15. 10 µg of Cerezyme was added to 10 µg of mammalian C18-glucosylceramide in the presence of 100 µM of compound hits. The reactions were performed in 50 mM sodium acetate buffer pH5.5 and incubated at 37°C for 3 hours. The amount of C18-ceramide formed was quantified by LC-MS. There was no significant difference between the control (no drug) and samples with 100 µM of hits 1, 9 and 15 (p>0.05). Statistical analysis by one-way ANOVA, Dunnett's Multiple Comparison Test. Data represent the mean +/- SD of n=3 independent experiments.

Test [2] relates to C. neoformans H99. The experiment in a line: Mouse model of cryptococcosis, intraperitoneal treatment (CBA/J mice). It counts as in vivo, Cryptococcus neoformans. To be noted: 10 mg/kg/day intraperitoneally; for CFU recovered from the brain: 14 days after infection; for lung CFU compared to vehicle-treated mice: days 3, 6, 9, 14; for Lung (CFU/mL): 10 mg/kg/day. The procedure: (§1) For animal studies, 4-week-old CBA/J (Envigo) female mice were used. Mouse experiments were performed in full compliance with a protocol approved by Stony Brook University (IACUC number 341588) and in compliance with the United States Animal Welfare Act (Public Law 98–198). The experiments were carried out in facilities accredited by the Association for Assessment and Accreditation of Laboratory Animal Care. Mice were divided into sets of 12 mice for each treatment or control group (4 animals per cage) kept in an animal room (temperature, 22–24 °C; relative humidity, 35–45%) with artificial 12–12 h dark/light cycle. For the experiment with intraperitoneal (i.p.) treatment, mice were infected intranasally with 10 µL of a suspension containing 1 × 10^6 C. neoformans H99 cells and subsequently treated through i.p. injection with 10 mg/kg/day of hit 1 in a final volume of 100 µL of vehicle containing 10% PEG 200 in PBS. The untreated animals received 100 µL of vehicle. For the experiment with intranasal (i.n.) treatment, mice were infected with 1 × 10^5 C. neoformans H99 cells and received i.n. treatment with hit 1 in a final volume of 10 µL. Another group received treatment with 10 mg/kg/day of fluconazole i.p. and a third group received the combined treatment of hit1 by i.n. and fluconazole by i.p. Animals receiving only vehicle i.n. were used as a control group. In both experiments, three mice of each group were euthanized at day 3, 6, 9, and 14 post infection for CFU recovery from lungs and CFU recovery from brain on day 14.

Test [3] has as its system C. neoformans H99. Type of test: in vivo, Cryptococcus neoformans. To be noted: Hit 1 intranasally, fluconazole intraperitoneally; for brain dissemination / CFU recovered from the brain: 14 days; for Lung (CFU/mL): 10 mg/kg/day. Here is the method: as §1
[4] abbreviates: day 14 post infection, 10 mg/kg/day each.

Several values for one entry are separate records, joined by “and”; a condition that tells them apart may be missing. Equal entries are not always repeated. Where two headings read alike, the source gives them in different places.

From PMC8497620, “Structure and inhibition of Cryptococcus neoformans sterylglucosidase to develop antifungal agents” (Nature Communications, 2021) come the findings set out here.

For the compound `COc1cccc(-c2ncc(CN3CCC(O)(CO)CC3)s2)c1` [Hit 1], the “% Cerezyme Inhibition” value in test [1] (12.5427 µM compound) was 4.937% and 1.065%; in test [1] (25.0854 µM compound), 6.583%; in test [1] (50.1708 µM compound) it was 7.795%; in test [1] (200.683 µM compound) it was 9.338%; in test [1] (800 µM compound) it was 12.9786%. Moreover, the inhibition at 25.0854 µM in test [1] (25.0854 µM compound) is 7.34%. This compound showed an inhibition at 50.1708 µM in test [1] (50.1708 µM compound) of 8.81%. The same compound gave an inhibition at 100.342 µM in test [1] (100.342 µM compound) of 9.86%. This compound also showed an inhibition at 200.683 µM in test [1] (200.683 µM compound) of 9.63%. In test [1] (401.367 µM compound), this compound showed an inhibition at 401.367 µM of 9.86%. This compound also registered an inhibition at 800 µM in test [1] (800 µM compound) of 10.5%. The “C18-ceramide” value at Cerezyme is 871.82 pmol/mL and 1017.11 pmol/mL and 1021.42 pmol/mL. The “inhibition of human Cerezyme” value at Cerezyme is “not inhibited”. For the same compound, the “CFU recovered from the brain” value in the test with C. neoformans H99 [2] is given as “no CFU were recovered from the brain”; in the test on C. neoformans H99 [2] (listed as hit 1), “No yeast cells were recovered from the brain”. Further, the “lung CFU compared to vehicle-treated mice” value with C. neoformans H99 [2] is “did not reduce lung colony-forming units”; in the test on C. neoformans H99 [2] (listed as hit 1) it was “no significant difference among untreated and treated mice”. The “Lung (CFU/mL)” value in the test on C. neoformans H99 [2] (day 3 post infection) was 1200000 CFU/mL and 1520000 CFU/mL and 1480000 CFU/mL; in the test with C. neoformans H99 [2] (day 9 post infection), 25000000 CFU/mL and 14200000 CFU/mL and 19700000 CFU/mL; with C. neoformans H99 [2] (day 14 post infection) it was 28600000 CFU/mL and 29600000 CFU/mL and 22000000 CFU/mL; in the test on C. neoformans H99 [3] (day 9 post infection, 10 mg/kg/day each) it was 950000 CFU/mL and 1400000 CFU/mL and 780000 CFU/mL; with C. neoformans H99 [3] (setting [4]), 3880000 CFU/mL and 3700000 CFU/mL and 3100000 CFU/mL. In addition, the “Brain (CFU/mL)” value with C. neoformans H99 [2] (day 14 post infection) and in the test with C. neoformans H99 [3] (setting [4]) was 0 CFU/mL each time. Moreover, the “brain dissemination / CFU recovered from the brain” value is listed as “no CFU recovered from the brain” with C. neoformans H99 [3] and “no brain dissemination of yeast cells” in the test with C. neoformans H99 [3] (listed as hit 1).
Turning to `CN1C[C@@H](NC(=O)Cc2ccc3c(c2)NC(=O)CO3)C[C@@H]1CO` [Hit 9], in test [1] (12.5427 µM compound), the “% Cerezyme Inhibition” value was 0.6044% and the inhibition at 12.5427 µM worked out at 1.03%. For the same compound, in test [1] (25.0854 µM compound), the “% Cerezyme Inhibition” value worked out at 2.143% and testing at 25.0854 µM gave an inhibition of 2.64%. Besides, in test [1] (50.1708 µM compound), the “% Cerezyme Inhibition” value came out at 6.259% and the inhibition at 50.1708 µM was determined as 5.68%. For the same compound, in test [1] (100.342 µM compound), the “% Cerezyme Inhibition” value is 7.029% and the inhibition at 100.342 µM was found to be 6.87%. In test [1] (200.683 µM compound), the “% Cerezyme Inhibition” value was determined as 9.927% and 200.683 µM produced 9.82% inhibition. In test [1] (401.367 µM compound), the “% Cerezyme Inhibition” value is 12.2165% and the inhibition at 401.367 µM was 14.1%. In addition, testing at 800 µM in test [1] (800 µM compound) gave an inhibition of 16.7%. Also, on Cerezyme, the “C18-ceramide” value is 1045.62 pmol/mL and 1138.29 pmol/mL and 953.48 pmol/mL; the “inhibition of human Cerezyme” value is on record as “not inhibited”.
In test [1] (12.5427 µM compound), `CC(C)c1nc(N[C@@H]2C[C@@H](CO)N(C)C2)c2cnn(C)c2n1` [Hit 15] gave an inhibition at 12.5427 µM of 0%. For the same compound, in test [1] (25.0854 µM compound), the “% Cerezyme Inhibition” value turned out to be 1.771% and at 25.0854 µM the inhibition was 1.74%. For the same compound, in test [1] (50.1708 µM compound), the “% Cerezyme Inhibition” value was 3.823% and the inhibition at 50.1708 µM was 2.11%. Moreover, in test [1] (100.342 µM compound), the “% Cerezyme Inhibition” value is given as 6.414% and 100.342 µM produced 5.46% inhibition. In addition, in test [1] (200.683 µM compound), the “% Cerezyme Inhibition” value is given as 6.666% and the inhibition at 200.683 µM was 9.37%. In test [1] (401.367 µM compound), the “% Cerezyme Inhibition” value came to 12.8892% and the inhibition at 401.367 µM came to 13.2%. In test [1] (800 µM compound), the “% Cerezyme Inhibition” value is on record as 12.1079% and the inhibition at 800 µM turned out to be 16.6%. Moreover, on Cerezyme, the “C18-ceramide” value is 1251.6 pmol/mL and 855.67 pmol/mL and 1299.99 pmol/mL; the “inhibition of human Cerezyme” value is recorded as “not inhibited”.
